Measurements taken from patent US10801035B2, “Plants having increased tolerance to herbicides” (BASF SE, priority 2011, dated 2020).

Columns and labels:
[1] = target: T1, Arabidopsis HPPD (SEQ ID: 53) (Arabidopsis thaliana, UniProt P93836); assay: HPPD activity assay, wildtype Arabidopsis HPPD; format: biochemical; settings: for Normalized tolerance index (TI): Arabidopsis HPPD Wildtype, normalized on wildtype (Table 11); for Ki / TI (tolerance index): Arabidopsis HPPD; for Ki: Cheng-Prusoff from IC50, read-out: Ki (dissociation constant); for TI (tolerance index): not normalized
T1 construct: His6 (N); made in house; host or cells: E. coli BL21 (DE3)
T1 sequence (P93836 1-445): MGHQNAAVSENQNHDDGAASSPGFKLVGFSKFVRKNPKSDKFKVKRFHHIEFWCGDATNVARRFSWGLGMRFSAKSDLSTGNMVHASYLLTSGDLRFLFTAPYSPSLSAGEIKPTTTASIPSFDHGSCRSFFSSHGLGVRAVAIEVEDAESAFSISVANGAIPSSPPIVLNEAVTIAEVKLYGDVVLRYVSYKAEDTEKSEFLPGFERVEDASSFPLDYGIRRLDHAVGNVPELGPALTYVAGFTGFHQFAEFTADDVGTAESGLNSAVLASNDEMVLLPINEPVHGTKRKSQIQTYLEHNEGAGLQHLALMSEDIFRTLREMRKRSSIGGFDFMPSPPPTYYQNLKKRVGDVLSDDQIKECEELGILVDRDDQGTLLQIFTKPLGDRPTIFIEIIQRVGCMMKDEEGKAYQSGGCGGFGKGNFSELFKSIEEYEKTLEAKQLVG
Method: (§1) HPPD produces homogentisic acid and CO2 from 4-hydroxyphenylpyruvate (4-HPP) and O2. The activity assay for HPPD is based on the analysis of homogentisic acid by reversed phase HPLC.
(§2) The assay mixture can contain 150 mM potassium phosphate buffer pH 7.0, 50 mM L-ascorbic acid, 1 μM FeSO4 and 7 μg of purified enzyme in a total volume of 1 ml. Inhibitors are dissolved in DMSO (dimethylsulfoxide) to a concentration of 20 mM or 0.5 mM, respectively. From this stock solution serial five-fold dilutions are prepared in DMSO, which are used in the assay. The respective inhibitor solution accounts for 1% of the assay volume. Thus, final inhibitor concentrations range from 200 μM to 2.5 nM or from 5 μM to 63 pM, respectively. After a preincubation of 30 min the reaction is started by adding 4-HPP to a final concentration of 0.1 mM. The reaction is allowed to proceed for 120 min at room temperature. The reaction is stopped by addition of 100 μl of 4.5 M phosphoric acid.
Activities are normalized by setting the uninhibited enzyme activity to 100%. […] values are calculated using non-linear regression.
The assay mixture can contain 150 mM potassium phosphate buffer pH 7.0, 50 mM L-ascorbic acid, 100 μM Catalase (Sigma-Aldrich), 1 μM FeSO4 and 0.2 units of purified HPPD enzyme in a total volume of 505 μl. 1 unit is defined as the amount of enzyme that is required to produce 1 nmol of HGA per minute at 20° C.
Inhibitors are dissolved in DMSO (dimethylsulfoxide) to a concentration of 0.5 mM. From this stock solution serial five-fold dilutions are prepared in DMSO, which are used in the assay. The respective inhibitor solution accounts for 1% of the assay volume. Thus, final inhibitor concentrations range from 5 μM to 320 pM, respectively. Activities are normalized by setting the uninhibited enzyme activity to 100%. IC50 values are calculated using non-linear regression.
Using methods which are described in the above examples or well known in the art, purified, recombinant wildtype HPPD enzymes are characterized with respect to their kinetic properties and sensitivity towards HPPD inhibiting herbicides. Apparent michaelis constants (Km) and maximal reaction velocities (Vmax) are calculated by non-linear regression with the software GraphPad Prism 5 (GraphPad Software, La Jolla, USA) using a substrate inhibition model. Apparent kcat values are calculated from Vmax assuming 100% purity of the enzyme preparation. Weighted means (by standard error) of Km and […] values are calculated from at least three independent experiments. The Cheng-Prusoff equation for competitive inhibition (Cheng, Y. C.; Prusoff, W. H. Biochem Pharmacol 1973, 22, 3099-3108) is used to calculate dissociation constants (Ki).
Field performance of the HPPD enzyme, which is used as a herbicide tolerance trait may depend not only on its lack of sensitivity towards HPPD inhibiting herbicides but also on its activity. To assess the potential performance of a herbicide tolerance trait a tolerance index (TI) is calculated using the following formula: […]
Easy comparison and ranking of each trait is enabled by normalizing every tolerance index on Hordeum HPPD.

[2] = target: T2, Hordeum HPPD variant L320N (Hordeum vulgare, UniProt O48604, A164G/L320N/R146V/R147D/R148G); assay: HPPD activity assay, Hordeum HPPD mutant L320N; format: biochemical; settings: normalized on wildtype
T2 construct: His6; made in house; host or cells: E. coli BL21 (DE3)
Method: as §1
as §2, with “The reaction is allowed to proceed for 120 min at room temperature. The reaction is stopped by addition of 100 μl of 4.5 M phosphoric acid.” left out
Inhibitors are dissolved in DMSO (dimethylsulfoxide) to a concentration of 0.5 mM. […] IC50 values are calculated using non-linear regression.
Purified, mutant HPPD enzymes are obtained by the methods described above. […] Apparent michaelis constants (Km) and maximal reaction velocities (Vmax) are calculated by non-linear regression with the software GraphPad Prism 5 (GraphPad Software, La Jolla, USA) using a substrate inhibition model. […] Weighted means (by standard error) of Km and […] values are calculated from at least three independent experiments. […]

T2 sequence (O48604 whole entry R146V/R147D/R148G/A164G/L320N): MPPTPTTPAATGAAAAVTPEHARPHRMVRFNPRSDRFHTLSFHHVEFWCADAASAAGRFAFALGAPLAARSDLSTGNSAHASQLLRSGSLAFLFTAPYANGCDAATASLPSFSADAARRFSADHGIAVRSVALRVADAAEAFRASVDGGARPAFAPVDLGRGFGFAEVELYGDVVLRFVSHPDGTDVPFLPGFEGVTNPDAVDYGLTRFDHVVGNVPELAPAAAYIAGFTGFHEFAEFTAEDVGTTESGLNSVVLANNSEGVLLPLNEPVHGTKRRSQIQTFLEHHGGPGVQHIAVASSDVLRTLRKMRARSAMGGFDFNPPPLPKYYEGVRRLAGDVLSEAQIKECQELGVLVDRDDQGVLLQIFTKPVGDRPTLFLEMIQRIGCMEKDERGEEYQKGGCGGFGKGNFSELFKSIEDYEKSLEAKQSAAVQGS

Row | SMILES | Normalized tolerance index (TI) [1] | Ki [1] [nM] | TI (tolerance index) [1] | Normalized tolerance index (TI) [2]
1 | CC1=NOC(c2c(Cl)ccc(C3=C(O)c4ncccc4N(CC(F)F)S3(=O)=O)c2Cl)C1 (centres unmarked) [Inhibitor 1, 3-[2,4-dichloro-3-(3-methyl-4,5-dihydroisoxazol-5-yl)phenyl]-1-(2,2-difluoroethyl)-2,2-dioxo-pyrido[3,2-c]thiazin-4-ol] | 1 | 3.3 | 3.3E−3 | 3.3
2 | O=S1(=O)C(c2c(Cl)cc(Cl)nc2Cl)=C(O)c2ncccc2N1CC(F)F [Inhibitor 2, 1-(2,2-difluoroethyl)-2,2-dioxo-3-(2,4,6-trichloro-3-pyridyl)pyrido[3,2-c]thiazin-4-ol] | 1 | 15 | 1.5E−2 | 1.7
